We go through 4 molecules from patent US6841385B2, “Transcription factor E2F DNA-binding domain inhibitor peptides and their use” (Topotarget UK Limited, priority 1999, dated 2005).

Bridge positions count the residues as written; N and C are the ends. Square brackets hold non-standard residues; d marks the D form. Ends that are not written are not given here. I, II: the chains in the order shown. βAla = NCCC(=O)O

For one experiment, the system named is HeLa cells. Nature of the experiment: BrdU incorporation cell proliferation assay, HeLa cells. It counts as cell-based. The settings on record: 24 hrs, dose-dependent. How it is done:
(§1) HeLa cells were grown in Dulbecco's Modified Eagle's Medium (DMEM) supplemented with fetal calf serum (FCS) and HL60 cells in RPMI 1640 supplemented with 10% FCS. Cells were treated with peptides in culture medium and incubated overnight before harvesting.
The peptides were tested in further experiments for their effect on cell cycle progression and cell viability. For this purpose, the peptides were conjugated at their C-terminus to a cell penetrating HIV-Tat derived peptide (aa 48-60) (Fawell et al. (1994) Proc. Natl. Acad. Sci. USA 91, 664-668).
(§2) HeLa, 3T3, W138 cells were treated with varying concentration of MAP-4-SEQ ID NO:2-TAT and a control peptide MAP-4-SEQ ID NO:39-TAT wherein SEQ ID NO:39 is SEQ ID NO:2 but containing 2 alanine substitutions at positions 1 and 4, i.e. AVRAHF (SEQ ID NO:39) DNA replication was analysed by BrdU incorporation after 24 hours.
(§3) Four tumor cell lines U2OS (osteosarcoma), C33A (cervical carcinoma), HeLa (cervical carcinoma) and E2F4/ras (derived from primary rat embryo fibroblasts) were treated with the branched peptide MAP-4-SEQ ID NO:2-TAT or mutant control peptide MAP-4-SEQ ID NO:39-TAT for 24 hrs. Cell proliferation was measured using the BrDU proliferation assay from Boehringer Mannheim (Cat No. 1 647 229).

The test system of experiment [1] is HL60 cells. Nature of the experiment: Growth of HL60 cells treated with peptide. In kind it is cell-based. How it is done:
as §1, §2
(§4) Effects became visible after 5-24 hours defending on the concentration of the peptide.

For experiment [2], the system named is HL60 cells. Nature of the experiment: Apoptosis, staining of HL60 cells with Heochst 33342 propidium iodide. In kind it is cell-based. How it is done: as §4
Experiment [3] relates to HL60 cells. As to the kind of experiment: Nuclease-laddering assay (DNA laddering) in HL60 cells. In kind it is cell-based. How it is done:
Treated cells were collected, washed with PBS, resuspended in lysis buffer (50 mM Tris pH 7.9, 100 mM EDTA, pH 8, 100 mM NaCl, 1% SDS) and 500 μg/ml proteinase K and incubated at 55° C. for 18 h. Cells were then incubated with […] for 1 hour at 37° C., genomic DNA was purified and examined by agarose gel electrophoresis.
as §4

For the next experiment, the system named is CycA promoter. Nature of the experiment: Transcription from the CycA promoter, HeLa cells transiently transfected with CycA-Luciferase construct. In kind it is cell-based. An excerpt: (§5) This finding is in agreement with the anti-repressor function of E2F in the CycA promoter, (Liu et al, Oncogene (1998), 16, 2957-2963).
The test system of the next experiment is SV-40 promoter. Nature of the experiment: Transcription from the SV-40 promoter (control), HeLa cells. In kind it is cell-based.
From the text: as §5

In a further experiment the test system is U2OS (osteosarcoma). Nature of the experiment: BrDU proliferation assay, U2OS cells. As to conditions: 24 hrs, dose-dependent. It counts as cell-based. How it is done:
as §3

For experiment [4], the system named is C33A (cervical carcinoma). Nature of the experiment: BrDU proliferation assay, C33A cells. In kind it is cell-based. The settings on record: 24 hrs, dose-dependent. How it is done:
as §3

The test system of experiment [5] is E2F4/ras (derived from primary rat embryo fibroblasts). As to the kind of experiment: BrDU proliferation assay, E2F4/ras cells. It counts as cell-based. As to conditions: 24 hrs, dose-dependent. How it is done: as §3
For experiment [6], the target named is T1, recombinant E2F1 N1-His (64-301) with DP1 N2-GST (84-249) (human, UniProt Q01094 64-301; Q14186 84-249).
T1 construct: range 64-301;range 84-249; Both proteins were incubated together at 10 ug/ml in the band shift assay with a 32P-labelled B-myb E2F-site probe; also called recombinant E2F1 and DP1; not shown: His tag from vector pET28b; GST fusion partner
As to the kind of experiment: deletion analysis; inhibition of E2F DNA binding (band shift).

Experiment [7] addresses T1, recombinant E2F1 N1-His (64-301) with …. Nature of the experiment: band shift, recombinant E2F, inhibition of DNA binding.
Procedure: (§6) Samples were run on 4% non denaturing polyacrylamide gel in 0.5% TBE at 4° C. Gels were exposed to X-ray films. […] The samples were then incubated for 10 minutes at 30° C. and cooled on ice. ^32P-labelled probe was added, the reaction mixtures were incubated for another 10 minutes at 30° C. and then cooled on ice.
(§7) The inhibitory potential of the peptides on E2F function was analysed in band shift assays with recombinant E2F1 and DP1.
Experiment [8] concerns the target E2F in nuclear extracts from F9 embryonal carcinoma cells. As to the kind of experiment: band shift with F9 nuclear extract; inhibition of E2F DNA binding.
For experiment [9], the target named is E2F in HeLa cells (nuclear extracts; endogenous E2F in transfected HeLa cells). Nature of the experiment: band shift with HeLa nuclear extract; inhibition of E2F DNA binding.
Experiment [10] concerns the target E2F1 overexpressed in stable transfected 3T3 cells (nuclear extract) (UniProt Q01094 1-437, limits assumed). As to the kind of experiment: band shift, extract of 3T3 cells overexpressing E2F1; inhibition of DNA binding.
Procedure: (§8) Probes were labelled by filling-in 5' overhanging ends of 4–7 bases. Samples were run on 4% non denaturing polyacrylamide gel in 0.5% TBE at 4° C. Gels were exposed to X-ray films. […] The samples were then incubated for 10 minutes at 30° C. and cooled on ice. ^32P-labelled probe was added, the reaction mixtures were incubated for another 10 minutes at 30° C. and then cooled on ice.
The target of experiment [11] is E2F2 overexpressed in stable transfected 3T3 cells (nuclear extract) (UniProt Q14209 1-437, limits assumed). As to the kind of experiment: band shift, extract of 3T3 cells overexpressing E2F2; inhibition of DNA binding.
Procedure: as §8
Experiment [12] concerns the target E2F3 overexpressed in stable transfected 3T3 cells (nuclear extract) (UniProt O00716 1-465, limits assumed). Nature of the experiment: band shift, extract of 3T3 cells overexpressing E2F3; inhibition of DNA binding.
Procedure: as §8
Experiment [13] has as its target E2F4 overexpressed in stable transfected 3T3 cells (nuclear extract) (UniProt Q16254 2-413, limits assumed). Nature of the experiment: band shift, extract of 3T3 cells overexpressing E2F4; inhibition of DNA binding.
Procedure: as §8
Experiment [14] concerns the target E2F5 overexpressed in stable transfected 3T3 cells (nuclear extract) (UniProt Q15329 1-346, limits assumed). Nature of the experiment: band shift, extract of 3T3 cells overexpressing E2F5; inhibition of DNA binding.
Procedure: as §8
Experiment [15] addresses T1, recombinant E2F1 N1-His (64-301) with …. Nature of the experiment: band shift, recombinant E2F1 and DP1, displacement of 32P B-myb E2F-site probe.
Procedure: as §6, §7

T1 sequence (Q01094 64-301, chain 1 of 2): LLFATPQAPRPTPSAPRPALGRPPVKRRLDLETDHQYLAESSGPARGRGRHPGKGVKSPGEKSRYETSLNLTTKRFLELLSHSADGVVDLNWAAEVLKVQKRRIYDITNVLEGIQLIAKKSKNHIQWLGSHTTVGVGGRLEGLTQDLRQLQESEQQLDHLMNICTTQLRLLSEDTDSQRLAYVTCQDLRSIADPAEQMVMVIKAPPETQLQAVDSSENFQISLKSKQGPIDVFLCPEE
T1 sequence (Q14186 84-249, chain 2 of 2): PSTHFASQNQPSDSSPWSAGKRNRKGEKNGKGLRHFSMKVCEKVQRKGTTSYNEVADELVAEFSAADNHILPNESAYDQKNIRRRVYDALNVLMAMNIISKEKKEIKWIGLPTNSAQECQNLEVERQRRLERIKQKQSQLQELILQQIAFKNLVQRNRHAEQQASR
Chain of E2F2 overexpressed in stable transfected 3T3 cells (nuclear extract) (Q14209 whole entry): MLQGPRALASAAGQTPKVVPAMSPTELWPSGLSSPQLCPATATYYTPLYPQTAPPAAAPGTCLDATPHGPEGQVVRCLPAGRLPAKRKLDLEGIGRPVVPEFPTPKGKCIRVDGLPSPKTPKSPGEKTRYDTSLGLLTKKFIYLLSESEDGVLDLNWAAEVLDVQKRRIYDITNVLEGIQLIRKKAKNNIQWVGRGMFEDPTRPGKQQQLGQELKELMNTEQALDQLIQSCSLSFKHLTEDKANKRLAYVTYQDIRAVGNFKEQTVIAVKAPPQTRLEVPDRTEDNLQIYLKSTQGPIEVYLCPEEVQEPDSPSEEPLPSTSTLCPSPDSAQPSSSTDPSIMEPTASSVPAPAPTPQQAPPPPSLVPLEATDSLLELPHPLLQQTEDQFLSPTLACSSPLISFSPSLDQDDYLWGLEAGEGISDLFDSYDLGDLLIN
Chain of E2F5 overexpressed in stable transfected 3T3 cells (nuclear extract) (Q15329 whole entry): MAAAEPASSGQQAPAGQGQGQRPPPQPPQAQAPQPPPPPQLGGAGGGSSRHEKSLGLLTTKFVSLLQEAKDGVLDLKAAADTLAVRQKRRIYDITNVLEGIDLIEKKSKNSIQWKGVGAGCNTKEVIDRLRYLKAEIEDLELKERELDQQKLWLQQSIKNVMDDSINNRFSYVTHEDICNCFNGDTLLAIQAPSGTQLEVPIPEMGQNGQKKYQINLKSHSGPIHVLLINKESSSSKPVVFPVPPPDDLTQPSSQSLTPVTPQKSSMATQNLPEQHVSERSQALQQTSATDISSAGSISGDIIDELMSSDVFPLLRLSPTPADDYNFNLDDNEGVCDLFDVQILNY
Chain of E2F4 overexpressed in stable transfected 3T3 cells (nuclear extract) (Q16254 2-413 limits assumed): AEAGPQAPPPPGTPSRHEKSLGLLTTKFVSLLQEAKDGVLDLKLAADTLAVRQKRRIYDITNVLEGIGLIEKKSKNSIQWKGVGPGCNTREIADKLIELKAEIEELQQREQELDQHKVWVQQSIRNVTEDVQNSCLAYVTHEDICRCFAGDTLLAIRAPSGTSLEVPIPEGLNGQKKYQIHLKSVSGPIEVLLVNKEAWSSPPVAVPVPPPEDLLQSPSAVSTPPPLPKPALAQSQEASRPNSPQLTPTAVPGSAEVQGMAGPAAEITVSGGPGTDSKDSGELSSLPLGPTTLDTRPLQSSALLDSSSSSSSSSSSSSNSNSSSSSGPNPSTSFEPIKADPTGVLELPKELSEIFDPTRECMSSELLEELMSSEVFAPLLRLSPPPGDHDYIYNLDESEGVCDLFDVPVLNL
Chain of E2F3 overexpressed in stable transfected 3T3 cells (nuclear extract) (O00716 whole entry): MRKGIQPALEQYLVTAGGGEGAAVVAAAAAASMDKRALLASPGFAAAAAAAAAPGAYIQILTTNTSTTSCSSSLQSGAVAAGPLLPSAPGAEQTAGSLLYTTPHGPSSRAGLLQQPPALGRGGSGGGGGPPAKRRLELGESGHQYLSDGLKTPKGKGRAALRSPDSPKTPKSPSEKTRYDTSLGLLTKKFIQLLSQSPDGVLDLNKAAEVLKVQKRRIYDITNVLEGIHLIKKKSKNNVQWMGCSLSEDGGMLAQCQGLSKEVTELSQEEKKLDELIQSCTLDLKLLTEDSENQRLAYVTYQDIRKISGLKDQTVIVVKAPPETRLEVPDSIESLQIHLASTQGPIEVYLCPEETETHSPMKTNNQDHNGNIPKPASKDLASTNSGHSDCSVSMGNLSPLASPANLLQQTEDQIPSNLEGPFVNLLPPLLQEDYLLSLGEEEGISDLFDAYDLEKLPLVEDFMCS
Chain of E2F1 overexpressed in stable transfected 3T3 cells (nuclear extract) (Q01094 whole entry): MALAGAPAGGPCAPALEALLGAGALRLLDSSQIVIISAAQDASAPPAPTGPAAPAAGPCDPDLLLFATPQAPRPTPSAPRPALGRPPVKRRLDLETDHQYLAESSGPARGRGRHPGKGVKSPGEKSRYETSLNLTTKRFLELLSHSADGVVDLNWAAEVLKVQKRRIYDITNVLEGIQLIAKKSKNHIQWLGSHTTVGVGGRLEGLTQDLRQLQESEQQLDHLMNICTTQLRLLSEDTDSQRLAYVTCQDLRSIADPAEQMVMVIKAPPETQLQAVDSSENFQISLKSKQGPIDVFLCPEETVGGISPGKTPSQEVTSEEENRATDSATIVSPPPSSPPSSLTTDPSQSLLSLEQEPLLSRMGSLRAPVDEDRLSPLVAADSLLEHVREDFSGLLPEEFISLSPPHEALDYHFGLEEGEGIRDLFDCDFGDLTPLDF

For “I: WVRWHFGRKKRRQRRRPPQKK[βAla] / II: WVRWHFGRKKRRQRRRPPQK / III: WVRWHFGRKKRRQRRRPPQ / IV: WVRWHFGRKKRRQRRRPPQ (amide I:20-IV:C, I:21-II:C, II:20-III:C) [MAP-4-SEQ ID NO:2-TAT]”, the inhibition of proliferation result (with HeLa cells; in the experiment with U2OS (osteosarcoma); in [4]; in experiment [5]) was “inhibited proliferation” throughout. The “inhibition of cell proliferation / cell growth” value with HL60 cells [1] (HL60 cells, concentrations between 1-5 μM) is on record as “Inhibition of cell proliferation”. Moreover, the “time after which effects became visible” value in the experiment with HL60 cells [1] (depending on the concentration of the peptide) fell in the range of 5 to 24 h. Besides, the “hallmarks of apoptosis after staining” value in the experiment with HL60 cells [2] is “chromatin condensation and nuclear fragmentation”. The DNA laddering result in the experiment with HL60 cells [3] is given as “internucleosomal DNA cleavage”. Moreover, the “effect on transcription from CycA-Luciferase construct” value with CycA promoter is “Inhibition of transcription”. In addition, the “effect on the SV-40 promoter” value in the experiment with SV-40 promoter was “No effect”.

B1: SEQ5-7 (3-13) (RILTFRSGSWY) (peptide)
peptide: RILTFRSGSWY
notes: also called core-region consisting of amino acids 3-13
For the molecule B1, the “inhibitory activity relative to SEQ ID NO:5” value in experiment [6] was ~50%.

B2: MAP4-SEQ ID NO:2 (branched molecule consisting of 4 copies of SEQ ID NO:2 linked by MAP, multiple antigen peptide) (peptide)
peptide: WVRWHF
modifications: also: tetravalent MAP core: 4 copies joined by C-terminus to Lys2-Lys-X core
notes: Branched tetravalent peptide on a lysine MAP core
Consider B2, for which the “fold lower IC50 (against the unbranched peptides)” value in experiment [7] is ~100 fold. Also, the concentration at which inhibition of E2F-DNA binding was found in experiment [8] and in experiment [9] was 10 to 30 µM in each case. For the same molecule, the IC50 in experiment [10], in [11], in experiment [12], in experiment [13] and in experiment [14] was ~30 µM throughout.

B3: peptide SEQ ID NO:4 (IWLSGLSRGVWVSFP) (peptide)
peptide: IWLSGLSRGVWVSFP
notes: Synthetic peptide in the band shift assays
Turning to B3, in [15], the binding result was “binds”.
